Measurements reported in ChEMBL document CHEMBL1151478, “ent-Kaurane diterpenoids from Isodon scoparius” (J Nat Prod, 2009).

Assays:
Assay type in all cases: functional, cell-based
NB-4 = assay: Cytotoxicity against human NB4 cells after 48 hrs by WST-8 assay; conditions: NB-4, 48 h
A549 = assay: Cytotoxicity against human A549 cells after 48 hrs by WST-8 assay; conditions: A549, 48 h
SH-SY5Y = assay: Cytotoxicity against human SH-SY5Y cells after 48 hrs by WST-8 assay
PC-3 = assay: Cytotoxicity against human PC3 cells after 48 hrs by WST-8 assay; conditions: PC-3, 48 h
MCF7 = assay: Cytotoxicity against human MCF7 cells after 48 hrs by WST-8 assay; conditions: MCF7, 48 h

Structure (SMILES): CC(=O)CC[C@H]1C(=O)[C@@]23[C@H](O)C[C@@H]4[C@@](C)(CO)CCC[C@@]4(C)[C@@H]2C(=O)[C@H](O)[C@H]1[C@H]3O
- IC50 (NB-4): > 10 µM
- IC50 (A549): > 10 µM
- IC50 (SH-SY5Y): > 10 µM
- IC50 (PC-3): > 10 µM
- IC50 (MCF7): > 10 µM

Structure (SMILES): COc1cc([C@@H]2c3cc4c(cc3[C@@H](O[C@@H]3O[C@@H]5CO[C@@H](C)O[C@H]5[C@H](O)[C@H]3O)[C@H]3COC(=O)[C@H]23)OCO4)cc(OC)c1O [ETOPOSIDE]
- IC50 (NB-4): 1.3 µM
- IC50 (A549): 1.7 µM
- IC50 (SH-SY5Y): 1.7 µM
- IC50 (PC-3): 13.6 µM

Structure (SMILES): C=C1C(=O)[C@@]23[C@H](O)C[C@@H]4C(C)(C)CC[C@H](O)[C@@]4(C)[C@@H]2C[C@H](O)[C@@H]1[C@H]3O [EXCISANIN A]
- IC50 (NB-4): 8.2 µM
- IC50 (A549): > 10 µM
- IC50 (SH-SY5Y): > 10 µM
- IC50 (PC-3): > 10 µM
- IC50 (MCF7): > 10 µM

Structure (SMILES): C=C1C(=O)[C@@]23CC[C@@H]4[C@@](C)(CO)CC[C@H](O)[C@@]4(C)[C@@H]2CC[C@@H]1[C@H]3O [EXCISANIN K]
- IC50 (NB-4): 8.7 µM
- IC50 (A549): > 10 µM
- IC50 (SH-SY5Y): > 10 µM
- IC50 (PC-3): > 10 µM
- IC50 (MCF7): > 10 µM

Structure (SMILES): C=C1C(=O)[C@@]23[C@H](O)C[C@@H]4[C@@](C)(CO)CCC[C@@]4(C)[C@@H]2C(=O)C[C@@H]1[C@H]3O [HENRYINE A]
- IC50 (NB-4): 2.3 µM
- IC50 (A549): > 10 µM
- IC50 (SH-SY5Y): 5.1 µM
- IC50 (PC-3): 7 µM
- IC50 (MCF7): > 10 µM

Structure (SMILES): CC1(C)CCC[C@]2(C)[C@@H]1C[C@@H](O)[C@@]13C(=O)[C@@]4(CO4)[C@@H]([C@H]1O)[C@@H](O)C(=O)[C@@H]23 [ISOSCOPARIN D]
- IC50 (NB-4): > 10 µM
- IC50 (A549): > 10 µM
- IC50 (SH-SY5Y): > 10 µM
- IC50 (PC-3): > 10 µM
- IC50 (MCF7): > 10 µM

Structure (SMILES): C=C1[C@@H]2[C@@H](O)[C@H](O)[C@H]3[C@]4(C)CCCC(C)(C)[C@H]4CC(=O)[C@@]3([C@@H]1OC(C)=O)[C@@H]2O [ISOSCOPARIN F]
- IC50 (NB-4): 2.2 µM
- IC50 (A549): 9.9 µM
- IC50 (SH-SY5Y): 9.2 µM
- IC50 (PC-3): > 10 µM
- IC50 (MCF7): 3.9 µM

Structure (SMILES): C=C1[C@@H](O)[C@@]23[C@H](O)C[C@@H]4[C@@](C)(CO)CCC[C@@]4(C)[C@@H]2C(=O)C[C@@H]1[C@H]3O [ISOSCOPARIN H]
- IC50 (NB-4): > 10 µM
- IC50 (A549): > 10 µM
- IC50 (SH-SY5Y): > 10 µM
- IC50 (PC-3): > 10 µM
- IC50 (MCF7): > 10 µM

Structure (SMILES): C=C1C(=O)[C@@]23[C@H](O)C[C@H]4[C@@](C)(CCC[C@]4(C)C=O)[C@@H]2[C@@H](O)C[C@@H]1[C@H]3O [ISOSCOPARIN I]
- IC50 (NB-4): 4.4 µM
- IC50 (A549): > 10 µM
- IC50 (SH-SY5Y): > 10 µM
- IC50 (PC-3): > 10 µM
- IC50 (MCF7): > 10 µM

Structure (SMILES): C=C1C(=O)[C@@]23[C@H](O)C[C@@H]4C(C)(C)CCC[C@@]4(C)[C@@H]2C[C@H](O)[C@@H]1[C@H]3O [ISOSCOPARIN L]
- IC50 (NB-4): 0.7 µM
- IC50 (A549): 6.4 µM
- IC50 (SH-SY5Y): 6.8 µM
- IC50 (PC-3): > 10 µM
- IC50 (MCF7): 2.2 µM

Structure (SMILES): C=C1C(=O)[C@@]23[C@H](O)C[C@@H]4C(C)(C)CC[C@H](O)[C@@]4(C)[C@@H]2CC[C@@H]1[C@H]3O [KAMEBANIN]
- IC50 (NB-4): 0.9 µM
- IC50 (A549): 7.3 µM
- IC50 (SH-SY5Y): 8.9 µM
- IC50 (PC-3): > 10 µM
- IC50 (MCF7): 8.4 µM

Structure (SMILES): C=C1[C@@H](O)[C@]23[C@H](O)[C@H]1CC[C@H]2[C@@]12CO[C@@]3(O)[C@@H](O)[C@@H]1C(C)(C)CC[C@@H]2OC(C)=O [LASIOKAURINOL]
- IC50 (NB-4): > 10 µM
- IC50 (A549): > 10 µM
- IC50 (SH-SY5Y): > 10 µM
- IC50 (PC-3): > 10 µM
- IC50 (MCF7): > 10 µM

Structure (SMILES): CC(=O)O[C@H]1C(=O)[C@@]2(C)[C@H]([C@H](OC(=O)c3ccccc3)[C@]3(O)C[C@H](OC(=O)[C@H](O)[C@@H](NC(=O)c4ccccc4)c4ccccc4)C(C)=C1C3(C)C)[C@]1(OC(C)=O)CO[C@@H]1C[C@@H]2O [PACLITAXEL]
- IC50 (NB-4): 0.1 µM
- IC50 (A549): 0.1 µM
- IC50 (SH-SY5Y): 0.2 µM
- IC50 (PC-3): 0.2 µM
- IC50 (MCF7): 0.1 µM

Structure (SMILES): C=C1C(=O)[C@@]23[C@H](O)C[C@@H]4C(C)(C)CCC[C@@]4(C)[C@@H]2C(=O)[C@H](O)[C@@H]1[C@H]3O [PHYLLOSTACHYSIN D]
- IC50 (NB-4): 0.3 µM
- IC50 (A549): > 10 µM
- IC50 (SH-SY5Y): > 10 µM
- IC50 (PC-3): > 10 µM
- IC50 (MCF7): > 10 µM

Structure (SMILES): C=C1C(=O)[C@@]23CC[C@@H]4C(C)(C)CC[C@H](O)[C@@]4(C)[C@@H]2[C@@H](O)C[C@@H]1[C@H]3O [PHYLLOSTACHYSIN H]
- IC50 (NB-4): > 10 µM
- IC50 (A549): > 10 µM
- IC50 (SH-SY5Y): > 10 µM
- IC50 (PC-3): > 10 µM
- IC50 (MCF7): > 10 µM

Structure (SMILES): C=C1C(=O)[C@@]23[C@H](O)C[C@@H]4C(C)(C)CC[C@H](O)[C@@]4(C)[C@@H]2[C@@H](O)C[C@@H]1[C@H]3O [RABDOINFLEXIN B]
- IC50 (NB-4): > 10 µM
- IC50 (A549): > 10 µM
- IC50 (SH-SY5Y): > 10 µM
- IC50 (PC-3): > 10 µM
- IC50 (MCF7): > 10 µM

Structure (SMILES): C=C1C(=O)[C@@]23[C@H](O)C[C@@H]4C(C)(C)CCC[C@@]4(C)[C@@H]2[C@@H](O)[C@H](O)[C@@H]1[C@H]3OC(C)=O [RABDOKUNMIN A]
- IC50 (NB-4): 2.7 µM
- IC50 (A549): 2.8 µM
- IC50 (SH-SY5Y): > 10 µM
- IC50 (PC-3): > 10 µM
- IC50 (MCF7): > 10 µM

Structure (SMILES): C=C1C(=O)[C@@]23[C@H](O)C[C@@H]4[C@@](C)(CO)CCC[C@@]4(C)[C@@H]2C[C@H](O)[C@@H]1[C@H]3O [RABDOKUNMIN C]
- IC50 (NB-4): > 10 µM
- IC50 (A549): > 10 µM
- IC50 (SH-SY5Y): > 10 µM
- IC50 (PC-3): > 10 µM
- IC50 (MCF7): > 10 µM

Structure (SMILES): C=C1C(=O)[C@@]23[C@H](O)C[C@@H]4[C@@](C)(CO)CCC[C@@]4(C)[C@@H]2[C@@H](O)C[C@@H]1[C@H]3O [RABDOKUNMIN D]
- IC50 (NB-4): > 10 µM
- IC50 (A549): > 10 µM
- IC50 (SH-SY5Y): > 10 µM
- IC50 (PC-3): > 10 µM
- IC50 (MCF7): > 10 µM

Structure (SMILES): C=C1C(=O)[C@@]23[C@H](O)C[C@@H]4[C@@](C)(CO)CCC[C@@]4(C)[C@@H]2C(=O)[C@H](O)[C@@H]1[C@H]3O [RABDOLOXIN A]
- IC50 (NB-4): > 10 µM
- IC50 (A549): > 10 µM
- IC50 (SH-SY5Y): > 10 µM
- IC50 (PC-3): > 10 µM
- IC50 (MCF7): > 10 µM

Structure (SMILES): C=C1C(=O)[C@@]23[C@H](O)C[C@@H]4C(C)(C)CCC[C@@]4(C)[C@@H]2[C@@H](O)[C@H](O)[C@@H]1[C@H]3O [RABDOLOXIN B]
- IC50 (NB-4): 2.8 µM
- IC50 (A549): 1.7 µM
- IC50 (SH-SY5Y): > 10 µM
- IC50 (PC-3): > 10 µM
- IC50 (MCF7): > 10 µM
